In US5795897A, “Oxohexyl methylxanthine compounds” (Cell Therapeutics, Inc., priority 1994, dated 1998):
“Also recorded” adds a separate entry of the source.

Assays:
[1] = test system: L929 murine fibroblast cells; assay: L929 TNF cytotoxicity assay (protection, fluorescent viability dye); format: cell-based; settings: TNF-α 500 pg/ml, 40 hrs at 37° C; 2 hrs preincubation; FIG. 1
Procedure: The cells plus (or minus) drug plus TNF were incubated for 40 hrs at 37° C.

[2] = test system: U937 cells to TNF activated human umbilical vein endothelial cells (HUVEC); assay: Adhesion of U937 cells to TNF-activated HUVEC; format: cell-based; settings: FIG. 2
Procedure: This example illustrates the effects of CT1505 to inhibit adhesion of U937 cells to TNF-activated HUVEC cells In this experiment, HUVEC cells were induced with human TNF-α(20ng/ml) and incubated with drug (CT1505) at varying concentrations for 14-16 hrs. U937 cells (a human monocyte cell line) were incubated and labeled with BCECF (10 μg/ml), a fluorescent dye. The U937 cell preparation (2.5×10^4 cells per well) was layered on top of the activated HUVEC cells. The cells were reverse spun to remove partially adhering and nonadhering U937 cell. The adherent U937 cells were measured by fluorescence on a fluorescent plate reader.

[3] = test system: LD-2 cells, a human malignant melanoma cell line; assay: Cytotoxicity on LD-2 cells; format: cell-based; settings: various concentrations, FIG. 3
Procedure: The cells were treated with various concentrations of CT1505 and later stained for cell viability with a fluorescence stain.
(§1) 1-(5-oxohexyl)-3-methylxanthine was investigated for cytotoxicity to determine appropriate doses for biological activity assays and to prevent cytotoxic reactions in in vitro assays when characterizing activity. Cells (e.g., NIH-3T3, Ras transformed 3T3 cells, malignant melanoma LD2 cells, etc.) are added to microtiter plates and drug is added about two days after plating. Cell viability is determined using a fluorescent viability stain (2', 7'-bis-(2-carboroxyethyl)-5-(and -6)-carboxyfluorescein acetoxymethyl ester, BCECF excitation 488 nm and emission 525 nm) 24,48 or 72 hours after addition of the drug.
This example illustrates that CT1505 has cytotoxic activity for the LD-2 tumor cell line. Cytotoxicity of LD-2 cells was determined with concentrations of CT1505 up to 1.0 mM (see FIG. 3).

NIH-3T3 cells = assay: Cytotoxicity on NIH-3T3 cells; format: cell-based; settings: various concentrations, FIG. 4
Procedure: (§2) The cells were treated with various concentrations of CT1505 (in the mM range on a log scale) and later stained for cell viability with a fluorescence stain.
as §1
(§3) This example illustrates that CT1505 has cytotoxic activity for NIH-3T3 and NIH-Ras transformed tumor cells. Cytotoxicity of the cells was determined with concentrations of CT1505 up to 1.0 mM (see FIG. 4).

NIH-3T3 Ras cells = assay: Cytotoxicity on Ras transformed NIH-3T3 cells; format: cell-based; settings: various concentrations, FIG. 4
Procedure: as §2, §1, §3

[4] = test system: PBMC (peripheral blood mononuclear cells); assay: Mixed lymphocyte reaction; format: cell-based, human; settings: CT1505 versus PTX, FIG. 5
Text: Various in vitro assays can be used to measure effects of 1-(5-oxohexyl)-3methylxanthine to module immune activity and have antitumor activity using a variety of cellular types. For example, a mixed lymphocyte reaction (MLR) provides a valuable screening tool to determine biological activity of 1-(5-oxohexyl)-3-methylxanthine. In the MLR, PBMCs (peripheral blood mononuclear cells) are obtained by drawing whole blood from healthy volunteers in a heparinized container and diluted with an equal volume of hanks balanced salt solution (HBSS). This mixture is layered on a sucrose density gradient, such as a Ficoll-Hypaque® gradient (specific gravity 1.08), and centrifuged at 1000×g for 25 minutes at room temperature or cooler. PBMC are obtained from a band at a plasma-Ficoll interface, separated and washed at least twice in a saline solution, such as HBSS. Contaminating red cells are lysed, such as by ACK lysis for 10 min at 37° C., and the PBMCs are washed twice in HBSS. The pellet of purified PBMCs is resuspended in complete medium, such as RPMI 1640 plus 20% human inactivated serum. Proliferative response of PBMC to allogeneic stimulation is determined in a two-way MLR performed in a 96-well microtiter plate. […] At the conclusion of the incubation tritiated thymidine is added (for example, 1 μCi/well of 40 to 60 Ci/mmole) and proliferation determined by liquid scintillation counting. […]

[5] = test system: synaptosomes stimulated with acetylcholine and/or epinephrine (PA and DAG); assay: PA and DAG levels in stimulated synaptosomes; format: biochemical
Procedure: (§4) One in vitro assay measures inhibition of the relevant enzymes lysophosphatidic acid acyltransferase (LPAAT) and phosphatidic acid phosphoryl hydrolase (PAPH). The assay involves incubating of target cells with a primary stimulus (e.g., a variety of cytokines, growth factors, oncogene products, putative therapeutic agents, irradiation, viral infection, toxins, bacterial infection and the products thereof, and any stimulus which, if not counteracted, has a deleterious effect on the target cell) in the presence or absence of 1-(5-oxohexyl)-3-methylxanthineat varying dosage levels. Target cells include, for example, subcellular entities, such as, microsomes derived from mesenchymal and/or ectodermal cells, particularly microsomes from marrow stromal cells or human or rat mesangial cells; microsomes or synaptosomes derived from bovine brain; plasma membrane-enriched microsomes or plasma membranes derived as described in Bursten et al. (J. Biol. Chem. […]:20732-20743, 1991) detergent-solubilized microsomes; synaptosomes, and membranes or other cell preparations solubilized using, for example, NP-40,Miranal, SDS or other neutral detergents; and detergent-solubilized or further purified preparations of cell proteins, including the proteins LPAAT and/or PAPH. […] Thus, the relevant unsaturated (non-arachidonic) PA and DAG subspecies may be detected. […]

PA and DAG = assay: Elevation of PA and DAG upon primary stimulus; format: cell-based; settings: e.g. interleukin-1 or TNF
Procedure: as §4

[6] = test system: polymorphonuclear leukocytes; settings: in response to a stimulator of chemotaxis; U.S. Pat. No. 4,636,507; cited from earlier work
[7] = U.S. Pat. Nos 4,515,795 and 4,576,947; cited from earlier work
TNF = settings: normal volunteers; cited from earlier work
certain cytokines = settings: U.S. Pat. Nos. 4,965,271 and 5,096,906; cited from earlier work

In the case of `CC(=O)CCCCn1c(=O)c2[nH]cnc2n(C)c1=O` [CT1505, 1-(5-oxohexyl)-3-methylxanthine], the “protection of fibroblast cells from TNF cytotoxicity” value [1] is reported as “protected the fibroblast cells from TNF cytotoxicity better than PTX and much better than the control cells”, the “concentration range of adhesion inhibitory activity” value ([2]; TNF-activated HUVEC) is reported as “tenths of mM” and the “inhibition of adhesion of U937 cells to activated HUVEC” value ([2]; TNF-α 20 ng/ml, 14-16 hrs) is reported as “inhibits adhesion of U937 cells to TNF activated human umbilical vein endothelial cells; also recorded: inhibited the inflammatory response of the activated HUVEC cells to adhere U937 monocytes in a dose response fashion”. The cytotoxicity [3] was “cytotoxic at higher concentrations”, the cytotoxicity (NIH-3T3 cells) was “cytotoxic at higher concentrations” and the cytotoxicity (NIH-3T3 Ras cells) was “cytotoxic at higher concentrations”. The immune modulating activity [4] was “more potent immune modulating activity with CT1505 than with PTX; also recorded: more potent drug for cause immune modulating activity than was PTX”, the “effect on enhanced PA and DAG levels” value [5] was “able to decrease enhanced levels of a relevant PA and DAG” and the “effect on elevation of PA and DAG levels” value (PA and DAG) was “reverses this elevation”.
For `CC(O)CCCCn1c(=O)c2c(ncn2C)n(C)c1=O` (centres unmarked) [M1, 1-(5-hydroxyhexyl)-3,7-dimethylxanthine], the “chemotaxis in polymorphonuclear leukocytes” value [6] is listed as “stimulate chemotaxis” and the cerebral blood flow [7] is listed as “increasing cerebral blood flow”.
For `CC(=O)CCCCn1c(=O)c2c(ncn2C)n(C)c1=O` [PTX, 1-(5-oxohexyl)-3,7-dimethylxanthine], the “chemotaxis in polymorphonuclear leukocytes” value [6] is given as “stimulate chemotaxis”, the TNF levels (TNF) is given as “TNF levels were higher among PTX recipients” and the “activity of certain cytokines to affect chemotaxis” value (certain cytokines) is given as “inhibit activity of certain cytokines”.
